For one assay, the system named is S. paratyphi 11737. In words: In vitro antibacterial activity (MIC), S. paratyphi 11737. The assay is classed as cell-based. The note with it: Salmonella enterica, 18 h.
In assay [1] the test system is Plasmodium berghei KBG 173. Put plainly: Antimalarial blood schizonticidal test in mice. The assay is classed as in vivo, Plasmodium berghei (infected ICR/HA Swiss mice). The conditions noted are these: s.c.; for minimal effective dose: Plasmodium berghei, sc, single dose, read-out: Min. Curing Dose; for Cure/Treat at Min. Curing Dose: at the Min. Curing Dose. Also noted: ΔMST (increase in mean survival time): unit: days. The text has this:
In addition, the invention provides compounds which have antimalarial activity in vivo as evidenced by a standard blood schizonticidal test in mice infected with Plasmodium berghei KBG 173.
Utilizing young ICR/HA Swiss mice and a standard inoculum of Plasmodium berghei KBG 173, it is possible to produce a uniform disease fatal to 100% of untreated animals within 6 to 8 days with a mean survival time of 6.2 days. Test animals weigh from 18 to 22 grams but weight variations in any given experimental or control group are confined to 2-3 grams. All animals in any given test are approximately of the same age. Animals on test are housed in metal-topped plastic cages, given a standard laboratory diet and water ad libitum.
Test animals receive an intraperitoneal injection of 0.5 ml. of 1:100 dilution of heparinized heart's blood with a minimum of 90% parasitized cells (4 × 10^7 cells), drawn from donor mice infected one week earlier with Plasmodium berghei. The donor strain is maintained by weekly passages in separate groups of mice inoculated with a 0.5 ml. of 1:500 dilution of heparinized heart's blood.
Test compounds are administered after dissolution or suspension in peanut oil. A single dose is given subcutaneously 72 hours after the mice are infected with Plasmodium berghei. At this time a 10-15 percent parasitemia has developed; the disease is well established but has not produced sufficient debility to alter the response of the host to toxic effects of the drug on test. Since treatment is withheld for three days to permit the infection to become well established and death occurs in untreated controls within 6-8 days, it is felt that this system presents a candidate compound with the maximum challenge. In order to check factors such as changes in the infectivity of Plasmodium berghei or in the susceptibility of the host or to detect technical errors, a group of infected animals treated with pyrimethamine at dose levels producing definite increases in survival time is included in a positive control in every experiment.
In each experiment test compounds are administered in graded dosages. […] However, if an active drug is toxic for the host, its toxicity may become a limiting factor; continued increases in dose levels also increase the toxic effects and may result in the diminution of survival times. Deaths prior to the sixth day, when untreated controls begin to die, are regarded as nonparasitic and become the basis for toxicity evaluations. […] In calculating mean survival time, toxic deaths and 60-day survivors are not included.
Compounds are considered active which produce a cure in at least one test animal or which produce significant increases in mean survival times of the treated animals as compared with the mean survival times of untreated controls, provided that no drug related deaths (toxicity) are noted at the active dose.

The test system of the next assay is E. coli 9637. In words: In vitro antibacterial activity (MIC), E. coli 9637. The note with it: Escherichia coli, 9637, 18 h.
The next assay concerns S. aureus Smith. Put plainly: In vitro antibacterial activity (MIC), S. aureus Smith. The conditions noted are these: Staphylococcus aureus, 18 h.
A further assay has as its system S. aureus 53-180. In words: In vitro antibacterial activity (MIC), S. aureus 53-180. The conditions noted are these: Staphylococcus aureus, 53180, 18 h.
A further assay concerns P. vulgaris 6896. In words: In vitro antibacterial activity (MIC), P. vulgaris 6896. The note with it: Proteus vulgaris, 6896, 18 h.
The next assay concerns N. catarrhalis 8193. In words: In vitro antibacterial activity (MIC), N. catarrhalis 8193. The note with it: 18 h.
The subject of a further assay is K. pneumoniae 10031. Put plainly: In vitro antibacterial activity (MIC), K. pneumoniae 10031. The note with it: Klebsiella pneumoniae, 10031, 18 h.

Molecules are shown by their SMILES. Converted amounts (≈) assume the structure as drawn. Where two headings read alike, the source gives them in different places. A value given as a limit tells only on which side of the number the result lay.

As usually defined, the MIC is the smallest concentration in the dilution series that meets the test's criterion for growth inhibition.

Take `CC(C)=CCn1ccc2c3c(N)nc(N)nc3ccc21` [Example 55]: the MIC with S. paratyphi 11737 is 7.81 µg/mL (≈ 29.2 µM); with E. coli 9637, 3.9 µg/mL (≈ 14.6 µM); in the assay with S. aureus Smith, 1.95 µg/mL (≈ 7.29 µM); against S. aureus 53-180, 0.976 µg/mL (≈ 3.65 µM); against P. vulgaris 6896 it was 7.81 µg/mL (≈ 29.2 µM); in the assay on N. catarrhalis 8193, 0.0038 µg/mL (≈ 0.0142 µM). In the assay with K. pneumoniae 10031, this compound showed an MIC of 0.488 µg/mL (≈ 1.83 µM). In addition, the minimal effective dose in assay [1] (1440 h, 60-day survivors) came out at 640 mg/kg. Besides, the “Cure/Treat at Min. Curing Dose” value in assay [1] (60-day survivors) was 3/5. Also, the “ΔMST (increase in mean survival time)” value in assay [1] (dose 320 mg. per kg.) is 9.3.

Regarding `CC(C)CCn1ccc2c3c(N)nc(N)nc3ccc21` [Example 66, 7-(3-Methylbutyl)-7H-pyrrolo[3,2-f]quinazoline-1,3-diamine], the MIC in the assay on S. paratyphi 11737 stood at 3.9 µg/mL (≈ 14.5 µM); in the assay on E. coli 9637, 0.976 µg/mL (≈ 3.62 µM); against S. aureus Smith, 1.95 µg/mL (≈ 7.24 µM); against S. aureus 53-180 it was 0.976 µg/mL (≈ 3.62 µM); in the assay on P. vulgaris 6896, 3.9 µg/mL (≈ 14.5 µM); against N. catarrhalis 8193, 0.0038 µg/mL (≈ 0.0141 µM). Further, inhibition of growth in the assay with K. pneumoniae 10031 (MIC) required 0.244 µg/mL (≈ 0.906 µM). The “ΔMST (increase in mean survival time)” value in assay [1] (dose 320 mg. per kg.) worked out at 8.1.

Turning to `CC(=O)c1ccccc1-n1ccc2c3c(N)nc(N)nc3ccc21` [Example 70], the MIC against S. paratyphi 11737 is 0.488 µg/mL (≈ 1.54 µM); against E. coli 9637 it was 0.244 µg/mL (≈ 0.769 µM); in the assay on S. aureus Smith it was 0.061 µg/mL (≈ 0.192 µM); in the assay with S. aureus 53-180 it was 0.031 µg/mL (≈ 0.0977 µM); against P. vulgaris 6896, 0.976 µg/mL (≈ 3.08 µM); in the assay with N. catarrhalis 8193, 0.0076 µg/mL (≈ 0.0239 µM). In addition, in the assay with K. pneumoniae 10031, 0.0152 µg/mL (≈ 0.0479 µM) was the least that counted as inhibitory (MIC). Moreover, in assay [1] (1440 h, 60-day survivors), the minimal effective dose was 40 mg/kg. The “Cure/Treat at Min. Curing Dose” value in assay [1] (60-day survivors) is 1/5. Moreover, the “ΔMST (increase in mean survival time)” value in assay [1] (dose 40 mg. per kg.) was 9.2.

Turning to `CC(=O)c1ccc(-n2ccc3c4c(N)nc(N)nc4ccc32)cc1` [Example 71], the MIC in the assay on S. paratyphi 11737 stood at 7.81 µg/mL (≈ 24.6 µM); with E. coli 9637, 0.976 µg/mL (≈ 3.08 µM); in the assay with S. aureus Smith, 1.95 µg/mL (≈ 6.14 µM); with S. aureus 53-180, 0.488 µg/mL (≈ 1.54 µM); in the assay with P. vulgaris 6896, 15.6 µg/mL (≈ 49.2 µM); with N. catarrhalis 8193, 0.031 µg/mL (≈ 0.0977 µM). Further, in the assay with K. pneumoniae 10031, the MIC was 0.122 µg/mL (≈ 0.384 µM). In assay [1] (1440 h, 60-day survivors), the minimal effective dose is 40 mg/kg. For the same compound, the “Cure/Treat at Min. Curing Dose” value in assay [1] (60-day survivors) is on record as 1/5. Moreover, the “ΔMST (increase in mean survival time)” value in assay [1] (dose 20 mg. per kg.) worked out at 8.8.

As to `Nc1nc(N)c2c(ccc3c2ccn3-c2ccccc2[N+](=O)[O-])n1` [Example 76], the MIC in the assay with S. paratyphi 11737 turned out to be 1.95 µg/mL (≈ 6.09 µM); in the assay with E. coli 9637, 0.976 µg/mL (≈ 3.05 µM); against S. aureus Smith, 0.244 µg/mL (≈ 0.762 µM); in the assay on S. aureus 53-180, 0.244 µg/mL (≈ 0.762 µM); with P. vulgaris 6896 it was 3.9 µg/mL (≈ 12.2 µM); in the assay with N. catarrhalis 8193, 0.031 µg/mL (≈ 0.0968 µM). For the same compound, the MIC with K. pneumoniae 10031 was 0.244 µg/mL (≈ 0.762 µM). Besides, the minimal effective dose in assay [1] (1440 h, 60-day survivors) is 40 mg/kg. Further, the “Cure/Treat at Min. Curing Dose” value in assay [1] (60-day survivors) is reported as 4/5.

As to `Nc1nc(N)c2c(ccc3c2ccn3-c2ccc([N+](=O)[O-])cn2)n1` [Example 82], the MIC is > 250 µg/mL with S. paratyphi 11737; > 250 µg/mL with E. coli 9637; 0.976 µg/mL (≈ 3.04 µM) against S. aureus Smith; 3.9 µg/mL (≈ 12.1 µM) with S. aureus 53-180; > 250 µg/mL against P. vulgaris 6896; 0.031 µg/mL (≈ 0.0965 µM) in the assay on N. catarrhalis 8193. In the assay on K. pneumoniae 10031, this compound returned an MIC of 31.3 µg/mL (≈ 97.4 µM). Also, the minimal effective dose in assay [1] (336 h, alive on day 14 considered cured, no 60-day data) is 160 mg/kg. For the same compound, the “Cure/Treat at Min. Curing Dose” value in assay [1] (alive on day 14 considered cured) is 1/5.

Consider `Cc1cc2c(ccc3nc(N)nc(N)c32)[nH]1` [Example 98, 8-Methyl-7H-pyrrolo[3,2-f]quinazoline-1,3-diamine], for which the MIC came to 15.6 µg/mL (≈ 73.2 µM) against S. paratyphi 11737; 3.9 µg/mL (≈ 18.3 µM) in the assay with E. coli 9637; 31.3 µg/mL (≈ 147 µM) against S. aureus Smith; 31.3 µg/mL (≈ 147 µM) against S. aureus 53-180; 15.6 µg/mL (≈ 73.2 µM) with P. vulgaris 6896; 1.95 µg/mL (≈ 9.14 µM) in the assay on N. catarrhalis 8193. In the assay on K. pneumoniae 10031, this compound returned an MIC of 3.9 µg/mL (≈ 18.3 µM). Besides, the minimal effective dose in assay [1] (1440 h, 60-day survivors) was 160 mg/kg. In addition, the “Cure/Treat at Min. Curing Dose” value in assay [1] (60-day survivors) is given as 3/5. Besides, the “ΔMST (increase in mean survival time)” value in assay [1] (dose 160 mg. per kg.) is recorded as 13.9.

The values above are taken from US4118561A, “7-(Substituted)-7H-pyrrolo[3,2-f]quinazoline-1,3-diamines” (priority 1977, dated 1978).
